Laboratory results as given in the supplement of paper PMC5662764.
± gives the standard deviation of the averaged measurements.

Experiments:
Test in all cases: normalised growth rate inhibition (GR value) relative to DMSO control (GR (1 = untreated growth, 0 = cytostasis, <0 = cytotoxic)); higher = less growth inhibition
Settings in all cases: 72 h
[1] = system: HS578T
Description: (§1)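 Breast cancer cell lines (BT-20, Hs 578T, MCF 10A, MCF7, MDA-MB-231, SK-BR-3) were plated in 384-well plates and treated 24 h later with drugs at six concentrations (0.04-10 µM). Viable cells were counted by Hoechst/dead-cell-stain imaging at 0 and 72 h. Counts were normalised to DMSO controls on the same plate to give the relative cell count and the growth-rate inhibition (GR) value; technical plate triplicates were averaged for each biological replicate.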

[2] = system: SKBR3
Description: as §1

[3] = system: MCF10A
Description: as §1

[4] = system: BT20
Description: as §1

[5] = system: MCF7
Description: as §1

[6] = system: MDAMB231
Description: as §1

## NC(=O)Nc1cc(-c2cccc(F)c2)sc1C(=O)N[C@H]1CCCNC1 [AZD-7762]
[1]; 0.04 µM
  normalised growth rate inhibition: 0.41 ± 0.2
[1]; 0.12 µM
  normalised growth rate inhibition: 0.0861 ± 0.15
[1]; 0.37 µM
  normalised growth rate inhibition: -0.0107 ± 0.13
[1]; 1.11 µM
  normalised growth rate inhibition: -0.108 ± 0.14
[1]; 3.33 µM
  normalised growth rate inhibition: -0.187 ± 0.13
[1]; 10 µM
  normalised growth rate inhibition: -0.289 ± 0.13
[2]; 0.04 µM
  normalised growth rate inhibition: 0.0117 ± 0.2
[2]; 0.12 µM
  normalised growth rate inhibition: -0.11 ± 0.19
[2]; 0.37 µM
  normalised growth rate inhibition: -0.168 ± 0.17
[2]; 1.11 µM
  normalised growth rate inhibition: -0.273 ± 0.16
[2]; 3.33 µM
  normalised growth rate inhibition: -0.301 ± 0.14
[2]; 10 µM
  normalised growth rate inhibition: -0.341 ± 0.13
[3]; 0.04 µM
  normalised growth rate inhibition: 0.878 ± 0.077
[3]; 0.12 µM
  normalised growth rate inhibition: 0.749 ± 0.11
[3]; 0.37 µM
  normalised growth rate inhibition: 0.647 ± 0.1
[3]; 1.11 µM
  normalised growth rate inhibition: 0.43 ± 0.097
[3]; 3.33 µM
  normalised growth rate inhibition: 0.188 ± 0.052
[3]; 10 µM
  normalised growth rate inhibition: -0.177 ± 0.082
[4]; 0.04 µM
  normalised growth rate inhibition: 1.05 ± 0.054
[4]; 0.12 µM
  normalised growth rate inhibition: 0.874 ± 0.14
[4]; 0.37 µM
  normalised growth rate inhibition: 0.634 ± 0.15
[4]; 1.11 µM
  normalised growth rate inhibition: 0.262 ± 0.15
[4]; 3.33 µM
  normalised growth rate inhibition: -0.0616 ± 0.12
[4]; 10 µM
  normalised growth rate inhibition: -0.418 ± 0.099
[5]; 0.04 µM
  normalised growth rate inhibition: 0.27 ± 0.063
[5]; 0.12 µM
  normalised growth rate inhibition: 0.176 ± 0.061
[5]; 0.37 µM
  normalised growth rate inhibition: 0.0985 ± 0.048
[5]; 1.11 µM
  normalised growth rate inhibition: -0.000407 ± 0.031
[5]; 3.33 µM
  normalised growth rate inhibition: -0.103 ± 0.015
[5]; 10 µM
  normalised growth rate inhibition: -0.276 ± 0.042
[6]; 0.04 µM
  normalised growth rate inhibition: 0.7 ± 0.19
[6]; 0.12 µM
  normalised growth rate inhibition: 0.387 ± 0.1
[6]; 0.37 µM
  normalised growth rate inhibition: 0.196 ± 0.21
[6]; 1.11 µM
  normalised growth rate inhibition: -0.0971 ± 0.13
[6]; 3.33 µM
  normalised growth rate inhibition: -0.246 ± 0.14
[6]; 10 µM
  normalised growth rate inhibition: -0.29 ± 0.16

## CC(=O)c1c(C)c2cnc(Nc3ccc(N4CCNCC4)cn3)nc2n(C2CCCC2)c1=O [palbociclib]
[1]; 0.04 µM
  normalised growth rate inhibition: 0.68 ± 0.03
[1]; 0.12 µM
  normalised growth rate inhibition: 0.569 ± 0.024
[1]; 0.37 µM
  normalised growth rate inhibition: 0.485 ± 0.044
[1]; 1.11 µM
  normalised growth rate inhibition: 0.411 ± 0.032
[1]; 3.33 µM
  normalised growth rate inhibition: 0.397 ± 0.019
[1]; 10 µM
  normalised growth rate inhibition: 0.327 ± 0.018
[2]; 0.04 µM
  normalised growth rate inhibition: 0.819 ± 0.12
[2]; 0.12 µM
  normalised growth rate inhibition: 0.683 ± 0.037
[2]; 0.37 µM
  normalised growth rate inhibition: 0.612 ± 0.05
[2]; 1.11 µM
  normalised growth rate inhibition: 0.595 ± 0.038
[2]; 3.33 µM
  normalised growth rate inhibition: 0.568 ± 0.049
[2]; 10 µM
  normalised growth rate inhibition: 0.517 ± 0.046
[3]; 0.04 µM
  normalised growth rate inhibition: 0.839 ± 0.037
[3]; 0.12 µM
  normalised growth rate inhibition: 0.743 ± 0.052
[3]; 0.37 µM
  normalised growth rate inhibition: 0.666 ± 0.048
[3]; 1.11 µM
  normalised growth rate inhibition: 0.581 ± 0.038
[3]; 3.33 µM
  normalised growth rate inhibition: 0.534 ± 0.019
[3]; 10 µM
  normalised growth rate inhibition: 0.408 ± 0.051
[4]; 0.04 µM
  normalised growth rate inhibition: 0.654 ± 0.069
[4]; 0.12 µM
  normalised growth rate inhibition: 0.53 ± 0.14
[4]; 0.37 µM
  normalised growth rate inhibition: 0.412 ± 0.13
[4]; 1.11 µM
  normalised growth rate inhibition: 0.295 ± 0.082
[4]; 3.33 µM
  normalised growth rate inhibition: 0.273 ± 0.066
[4]; 10 µM
  normalised growth rate inhibition: 0.196 ± 0.033
[5]; 0.04 µM
  normalised growth rate inhibition: 0.696 ± 0.09
[5]; 0.12 µM
  normalised growth rate inhibition: 0.552 ± 0.13
[5]; 0.37 µM
  normalised growth rate inhibition: 0.447 ± 0.15
[5]; 1.11 µM
  normalised growth rate inhibition: 0.356 ± 0.13
[5]; 3.33 µM
  normalised growth rate inhibition: 0.32 ± 0.055
[5]; 10 µM
  normalised growth rate inhibition: 0.294 ± 0.024
[6]; 0.04 µM
  normalised growth rate inhibition: 0.675 ± 0.092
[6]; 0.12 µM
  normalised growth rate inhibition: 0.579 ± 0.077
[6]; 0.37 µM
  normalised growth rate inhibition: 0.477 ± 0.075
[6]; 1.11 µM
  normalised growth rate inhibition: 0.407 ± 0.043
[6]; 3.33 µM
  normalised growth rate inhibition: 0.35 ± 0.027
[6]; 10 µM
  normalised growth rate inhibition: 0.278 ± 0.039

## Nc1cccc(-c2cc3c(Oc4cccc(O)c4)ncnc3[nH]2)c1 [TWS-119]
[1]; 0.04 µM
  normalised growth rate inhibition: 1.02 ± 0.014
[1]; 0.12 µM
  normalised growth rate inhibition: 0.9855 ± 0.0042
[1]; 0.37 µM
  normalised growth rate inhibition: 0.978 ± 0.011
[1]; 1.11 µM
  normalised growth rate inhibition: 0.8808 ± 0.0081
[1]; 3.33 µM
  normalised growth rate inhibition: 0.707 ± 0.057
[1]; 10 µM
  normalised growth rate inhibition: -0.081 ± 0.15
[2]; 0.04 µM
  normalised growth rate inhibition: 1.09 ± 0.077
[2]; 0.12 µM
  normalised growth rate inhibition: 0.989 ± 0.074
[2]; 0.37 µM
  normalised growth rate inhibition: 1.06 ± 0.044
[2]; 1.11 µM
  normalised growth rate inhibition: 1.02 ± 0.043
[2]; 3.33 µM
  normalised growth rate inhibition: 0.48 ± 0.095
[2]; 10 µM
  normalised growth rate inhibition: -0.212 ± 0.26
[3]; 0.04 µM
  normalised growth rate inhibition: 1.02 ± 0.013
[3]; 0.12 µM
  normalised growth rate inhibition: 1.01 ± 0.011
[3]; 0.37 µM
  normalised growth rate inhibition: 1.02 ± 0.0082
[3]; 1.11 µM
  normalised growth rate inhibition: 1.02 ± 0.024
[3]; 3.33 µM
  normalised growth rate inhibition: 0.912 ± 0.11
[3]; 10 µM
  normalised growth rate inhibition: 0.0326 ± 0.084
[4]; 0.04 µM
  normalised growth rate inhibition: 1.02 ± 0.034
[4]; 0.12 µM
  normalised growth rate inhibition: 0.994 ± 0.056
[4]; 0.37 µM
  normalised growth rate inhibition: 0.971 ± 0.055
[4]; 1.11 µM
  normalised growth rate inhibition: 0.885 ± 0.11
[4]; 3.33 µM
  normalised growth rate inhibition: 0.696 ± 0.096
[4]; 10 µM
  normalised growth rate inhibition: 0.0129 ± 0.081
[5]; 0.04 µM
  normalised growth rate inhibition: 1.06 ± 0.061
[5]; 0.12 µM
  normalised growth rate inhibition: 0.984 ± 0.053
[5]; 0.37 µM
  normalised growth rate inhibition: 0.991 ± 0.071
[5]; 1.11 µM
  normalised growth rate inhibition: 0.963 ± 0.079
[5]; 3.33 µM
  normalised growth rate inhibition: 0.616 ± 0.079
[5]; 10 µM
  normalised growth rate inhibition: -0.165 ± 0.1
[6]; 0.04 µM
  normalised growth rate inhibition: 0.975 ± 0.056
[6]; 0.12 µM
  normalised growth rate inhibition: 0.961 ± 0.07
[6]; 0.37 µM
  normalised growth rate inhibition: 0.929 ± 0.084
[6]; 1.11 µM
  normalised growth rate inhibition: 0.785 ± 0.056
[6]; 3.33 µM
  normalised growth rate inhibition: 0.619 ± 0.021
[6]; 10 µM
  normalised growth rate inhibition: 0.0363 ± 0.044

## Cc1cnc(-c2cnc(NCCNc3ccc(C#N)cn3)nc2-c2ccc(Cl)cc2Cl)[nH]1
[1]; 0.04 µM
  normalised growth rate inhibition: 0.97 ± 0.014
[1]; 0.12 µM
  normalised growth rate inhibition: 0.9636 ± 0.0048
[1]; 0.37 µM
  normalised growth rate inhibition: 0.962 ± 0.018
[1]; 1.11 µM
  normalised growth rate inhibition: 0.911 ± 0.059
[1]; 3.33 µM
  normalised growth rate inhibition: 0.907 ± 0.018
[1]; 10 µM
  normalised growth rate inhibition: 0.525 ± 0.14
[2]; 0.04 µM
  normalised growth rate inhibition: 0.731 ± 0.12
[2]; 0.12 µM
  normalised growth rate inhibition: 0.725 ± 0.17
[2]; 0.37 µM
  normalised growth rate inhibition: 0.786 ± 0.16
[2]; 1.11 µM
  normalised growth rate inhibition: 0.749 ± 0.17
[2]; 3.33 µM
  normalised growth rate inhibition: 0.753 ± 0.17
[2]; 10 µM
  normalised growth rate inhibition: 0.465 ± 0.2
[3]; 0.04 µM
  normalised growth rate inhibition: 1.01 ± 0.032
[3]; 0.12 µM
  normalised growth rate inhibition: 1.01 ± 0.041
[3]; 0.37 µM
  normalised growth rate inhibition: 0.997 ± 0.07
[3]; 1.11 µM
  normalised growth rate inhibition: 0.952 ± 0.12
[3]; 3.33 µM
  normalised growth rate inhibition: 0.9 ± 0.12
[3]; 10 µM
  normalised growth rate inhibition: 0.799 ± 0.13
[4]; 0.04 µM
  normalised growth rate inhibition: 0.915 ± 0.11
[4]; 0.12 µM
  normalised growth rate inhibition: 0.932 ± 0.082
[4]; 0.37 µM
  normalised growth rate inhibition: 0.959 ± 0.087
[4]; 1.11 µM
  normalised growth rate inhibition: 1 ± 0.093
[4]; 3.33 µM
  normalised growth rate inhibition: 1.01 ± 0.069
[4]; 10 µM
  normalised growth rate inhibition: 0.875 ± 0.16
[5]; 0.04 µM
  normalised growth rate inhibition: 0.844 ± 0.082
[5]; 0.12 µM
  normalised growth rate inhibition: 0.786 ± 0.085
[5]; 0.37 µM
  normalised growth rate inhibition: 0.776 ± 0.095
[5]; 1.11 µM
  normalised growth rate inhibition: 0.586 ± 0.16
[5]; 3.33 µM
  normalised growth rate inhibition: 0.585 ± 0.1
[5]; 10 µM
  normalised growth rate inhibition: 0.222 ± 0.061
[6]; 0.04 µM
  normalised growth rate inhibition: 0.895 ± 0.041
[6]; 0.12 µM
  normalised growth rate inhibition: 0.823 ± 0.039
[6]; 0.37 µM
  normalised growth rate inhibition: 0.831 ± 0.021
[6]; 1.11 µM
  normalised growth rate inhibition: 0.827 ± 0.061
[6]; 3.33 µM
  normalised growth rate inhibition: 0.831 ± 0.024
[6]; 10 µM
  normalised growth rate inhibition: 0.762 ± 0.035
